The source made the active and inactive calls. How the calls were made is not given here.
Tested on: CCRIS mutagenicity, Ames/micronucleus/aberration tests
Assay: CCRIS mutagenicity studies
[1] = Test System: AMES SALMONELLA TYPHIMURIUM, Strain/Indicator: TA100, Metabolic Activation: NONE, Method: STANDARD PLATE
[2] = Test System: AMES SALMONELLA TYPHIMURIUM, Strain/Indicator: TA100, Metabolic Activation: NONE, Method: PREINCUBATION

CCNC(=O)NC(=O)/C(C#N)=N/OC was tested, and the mutagenic call (End Point: In vitro chromosomal aberrations, Test System: Human lymphocytes, Metabolic Activation: None) was “active; positive (structural changes)”, the mutagenic call (End Point: In vitro chromosomal aberrations, Test System: Human lymphocytes, Metabolic Activation: S-9 (DPR evaluator did not provide additional details)) was “active; positive (structural changes)” and the mutagenic call (End Point: In vivo micronucleus, Test System: Bone marrow polychromatic erythrocytes, Species: Mouse, Strain/Sex: Female, Route: Oral (gavage)) was “inactive; negative, significant toxicity (m and f) and early deaths (f only) as high dose”. For the same molecule, the mutagenic call (End Point: In vivo micronucleus, Test System: Bone marrow polychromatic erythrocytes, Species: Mouse, Strain/Sex: Male, Route: Oral (gavage)) was “inactive; negative, significant toxicity (m and f) and early deaths (f only) as high dose”, the mutagenic call (Test System: Ames Salmonella typhimurium, Strain/Indicator: TA97, Metabolic Activation: None, Method: Plate incorporation) was “inactive; negative, testing into the cytotoxic range” and the mutagenic call (Test System: Ames Salmonella typhimurium, Strain/Indicator: TA97, Metabolic Activation: S-9 (DPR evaluator did not provide additional information), Method: Plate incorporation) was “inactive; negative, testing into the cytotoxic range”. For the same molecule, the mutagenic call (Test System: Ames Salmonella typhimurium, Strain/Indicator: TA98, Metabolic Activation: None, Method: Plate incorporation) was “inactive; negative, testing into the cytotoxic range”, the mutagenic call (Test System: Ames Salmonella typhimurium, Strain/Indicator: TA98, Metabolic Activation: S-9 (DPR evaluator did not provide additional information), Method: Plate incorporation) was “inactive; negative, testing into the cytotoxic range” and the mutagenic call (Test System: Ames Salmonella typhimurium, Strain/Indicator: TA100, Metabolic Activation: None, Method: Plate incorporation) was “inactive; negative, testing into the cytotoxic range”. For the same molecule, the mutagenic call (Test System: Ames Salmonella typhimurium, Strain/Indicator: TA100, Metabolic Activation: S-9 (DPR evaluator did not provide additional information), Method: Plate incorporation) was “inactive; negative, testing into the cytotoxic range”, the mutagenic call (Test System: Ames Salmonella typhimurium, Strain/Indicator: TA1535, Metabolic Activation: None, Method: Plate incorporation) was “inactive; negative, testing into the cytotoxic range” and the mutagenic call (Test System: Ames Salmonella typhimurium, Strain/Indicator: TA1535, Metabolic Activation: S-9 (DPR evaluator did not provide additional information), Method: Plate incorporation) was “inactive; negative, testing into the cytotoxic range”. For the same molecule, the mutagenic call (Test System: Chinese hamster ovary cells, Strain/Indicator: CHO Cells (HPRT) /6-Thioguanine, Metabolic Activation: None, Method: Preincubation) was “inactive; negative”, the mutagenic call (Test System: Chinese hamster ovary cells, Strain/Indicator: CHO Cells (HPRT)/6-Thioguanine, Metabolic Activation: S-9 (DPR evaluator did not provide additional information), Method: Preincubation) was “inactive; negative” and the mutagenic call (Test System: Male rat spermatocytes, Strain/Indicator: Thymidine incorporation, Metabolic Activation: None, Method: Autoradiography) was “inactive; negative, mortality and clinical signs of toxicity observed”. The mutagenic call (Test System: UDS Male rat hepatocytes, Strain/Indicator: Thymidine incorporation, Metabolic Activation: None, Method: Autoradiography) was “inactive; negative, mortality and clinical signs of toxicity observed” and the mutagenic call (Test System: UDS Rat hepatocytes, Strain/Indicator: Thymidine incorporation, Metabolic Activation: None, Method: Autoradiography) was “active; positive, statistically significant but no linear dose response”.
With O=[N+]([O-])c1ccc(CN2C3c4ccccc4-c4ccccc4C32)cc1 (centres undefined) the mutagenic call [1] was “active; positive”.
In the case of C1=Cc2cc3ccccc3c3cccc1c23, the mutagenic call (Test System: AMES SALMONELLA TYPHIMURIUM, Strain/Indicator: TA98, Metabolic Activation: NONE, Method: STANDARD PLATE) is reported as “inactive; negative”, the mutagenic call (Test System: AMES SALMONELLA TYPHIMURIUM, Strain/Indicator: TA98, Metabolic Activation: RAT, LIVER, S-9, AROCLOR 1254, Method: STANDARD PLATE) is reported as “active; positive” and the mutagenic call [1] is reported as “inactive; negative”. For the same molecule, the mutagenic call (Test System: AMES SALMONELLA TYPHIMURIUM, Strain/Indicator: TA100, Metabolic Activation: RAT, LIVER, S-9, AROCLOR 1254, Method: STANDARD PLATE) was “active; positive”.
CN(C)c1ccc(C(=C2C=CC(=[N+](C)C)C=C2)c2ccccc2Cl)cc1 was tested, and the mutagenic call (Test System: Ames Salmonella typhimurium, Strain/Indicator: TA98, Metabolic Activation: None, Method: Preincubation) was “inactive; negative”, the mutagenic call (Test System: Ames Salmonella typhimurium, Strain/Indicator: TA98, Metabolic Activation: Rat, Liver, S-9, Aroclor 1254, Method: Preincubation) was “inactive; negative” and the mutagenic call (Test System: Ames Salmonella typhimurium, Strain/Indicator: TA100, Metabolic Activation: None, Method: Preincubation) was “inactive; negative”. The mutagenic call (Test System: Ames Salmonella typhimurium, Strain/Indicator: TA100, Metabolic Activation: Rat, Liver, S-9, Aroclor 1254, Method: Preincubation) was “inactive; negative”, the mutagenic call (Test System: Ames Salmonella typhimurium, Strain/Indicator: TA102, Metabolic Activation: None, Method: Preincubation) was “inactive; negative” and the mutagenic call (Test System: Ames Salmonella typhimurium, Strain/Indicator: TA102, Metabolic Activation: Rat, Liver, S-9, Aroclor 1254, Method: Preincubation) was “inactive; negative”. For the same molecule, the mutagenic call (Test System: Ames Salmonella typhimurium, Strain/Indicator: TA1535, Metabolic Activation: None, Method: Preincubation) was “inactive; negative” and the mutagenic call (Test System: Ames Salmonella typhimurium, Strain/Indicator: TA1535, Metabolic Activation: Rat, Liver, S-9, Aroclor 1254, Method: Preincubation) was “inactive; negative”.
With C=C(C=O)CCCC the mutagenic call [2] was “active; positive” and the mutagenic call (Test System: AMES SALMONELLA TYPHIMURIUM, Strain/Indicator: TA100, Metabolic Activation: RAT LIVER S-9, AROCLOR 1254, Method: PREINCUBATION) was “active; positive”.
For Cc1cnc2ccccc2c1, the mutagenic call (Test System: AMES SALMONELLA TYPHIMURIUM, Strain/Indicator: TA98, Metabolic Activation: NONE, Method: PREINCUBATION) was “inactive; negative”, the mutagenic call (Test System: AMES SALMONELLA TYPHIMURIUM, Strain/Indicator: TA98, Metabolic Activation: RAT, LIVER, S-9, Method: PREINCUBATION) was “inactive; negative” and the mutagenic call [2] was “inactive; negative”. For the same molecule, the mutagenic call (Test System: AMES SALMONELLA TYPHIMURIUM, Strain/Indicator: TA100, Metabolic Activation: RAT, LIVER, S-9, PHENOBARBITAL AND 5,6-BENZOFLAVONE, Method: PREINCUBATION) was “active; positive” and the mutagenic call (Test System: AMES SALMONELLA TYPHIMURIUM, Strain/Indicator: TA100, Metabolic Activation: RAT, LIVER, S-9, PHENOBARBITAL AND 5,6-NAPHTHOFLAVONE, Method: PREINCUBATION) was “active; positive”.
With Cc1cc(O)c2c(c1O)C(=O)C13C(=C2O)C(=O)C2C(O)C1C1C(O)C3C(=O)C3=C(O)c4c(O)cc(C)c(O)c4C(=O)C321 (centres undefined) the mutagenic call [2] was “inactive; negative” and the mutagenic call (Test System: AMES SALMONELLA TYPHIMURIUM, Strain/Indicator: TA100, Metabolic Activation: RAT, LIVER, S-9, PHENOBARBITAL, Method: PREINCUBATION) was “inactive; negative”.
In the case of CCCCCCOCC1CO1 (centres undefined), the mutagenic call [2] is reported as “active; positive”, the mutagenic call (Test System: AMES SALMONELLA TYPHIMURIUM, Strain/Indicator: TA100, Metabolic Activation: RAT, LIVER, S-9, AROCLOR 1254 (10%), Method: PREINCUBATION) is reported as “inactive; negative” and the mutagenic call (Test System: AMES SALMONELLA TYPHIMURIUM, Strain/Indicator: TA1535, Metabolic Activation: HAMSTER, LIVER, S-9, AROCLOR 1254 (10%), Method: PREINCUBATION) is reported as “active; positive”. The mutagenic call (Test System: AMES SALMONELLA TYPHIMURIUM, Strain/Indicator: TA1535, Metabolic Activation: NONE, Method: PREINCUBATION) was “active; positive” and the mutagenic call (Test System: AMES SALMONELLA TYPHIMURIUM, Strain/Indicator: TA1535, Metabolic Activation: RAT, LIVER, S-9, AROCLOR 1254 (10%), Method: PREINCUBATION) was “active; positive”.

From PubChem BioAssay AID1259407 (Chemical Carcinogenesis Research Information System (CCRIS), 2018)
